How the values were obtained:
ME180 cells = test: XTT cell viability in the CD4-independent transmission assay
Procedure: ME180 cells, a CD4 negative, X4 positive cervical epithelial cell line is maintained in RPMI 1640 supplemented with 10% fetal bovine serum, glutamine and antibiotics. Twenty-four h prior to the assay ME180 cells are trypsonized, washed and seeded in 96-well flat bottom microtiter plates at a density of 2×10^3 cells per well. On the day of the assay, H9 cells chronically infected with the SK1 clinical isolate of HIV-1 (H9-SK1) are treated with freshly made mitomycin C (200 μg/ml) for 60 minutes at 37° C. This concentration of mitomycin C is sufficient to result in cell death, but allows virus transmission to occur. After mitomycin C treatment the H9-SK1 cells are washed three times with tissue culture medium. Test compounds are added to the ME180 monolayer followed by 2×10^4 H9-SK1 cells. The ME180 cells are co-cultured with H9-SK-1 cells and test material for 4 h, and the H9-SK1 cells are removed by washing the ME180 monolayer three times with PBS. At 24 and 48 h post assay initiation the wells are again washed three times with PBS to ensure removal of the H9-SK1 cells, and culture continued in test material free media. At six days post-co-cultivation, supernatants are collected and evaluated for p24 antigen expression by ELISA. Cell viability is assessed by XTT dye reduction. […] Testing in the presence of mucin is carried out by addition of 200 µg/ml of porcine mucin (Sigma Chemical Co., St Louis, Mo.) to the transmission reactions. Transmission intervals and washing without replacement of mucin or compound are carried as described above. All determinations are performed in triplicate with serial ½ Log10 dilution of the test materials.
TC50 values for the test materials are derived by measuring the reduction of the tetrazolium dye XTT (2,3-bis(2-methoxy-4-nitro-5-sulfophenyl)-5-[(phenylamino)carbonyl]-2H-tetrazolium hydroxide) in replicate microtiter plates containing cell and compound without virus. […] XTT solution is prepared daily as a stock of 1 mg/mL in PBS. Phenazine methosulfate (PMS) solution is prepared at 15 mg/mL in PBS and stored in the dark at −20° C. XTT/PMS stock is prepared immediately before use by diluting the PMS 1:100 into PBS and adding 40 µl per mL of XTT solution. Fifty microliters of XTT/PMS are added to each well of the plate and the plate incubated for 4 h at 37° C. The 4 h incubation has been empirically determined to be within the linear response range for […] dye reduction with the indicated numbers of cells for each assay. Adhesive plate sealers are used in place of the lids, the sealed plate is inverted several times to mix the soluble formazan product and the plate is read at 450 nm with a Molecular Devices Vmax 96 well plate format spectrophotometer.
Dextran sulfate (positive) and dextran (negative) are used as controls for the CD4-dependent and CD4-independent HIV transmission inhibition assays. […] Commercially available Penicillin (10,000 U/ml) Streptomycin (10.0 mg/ml) solution is used as a positive control for the Lactobacillus sensitivity assay.

Lactobacillus crispatus = test: Lactobacillus growth sensitivity assay; format: cell-based; conditions: 24 h growth, OD 490 nm
Procedure: (§1) Lactobacillus crispatus and Lactobacillus jensenii were obtained from the American Type Tissue Culture Collection and grown in Lactobacilli MRS broth (Difco, Fisher Scientific, Pittsburgh, Pa.). This medium allows efficient growth of the Lactobacilli under anaerobic conditions. Bacillus stocks are produced and frozen in 15% glycerol at −80° C. for use in the sensitivity assay. To assess the effect of compounds on L. crispatus and L. jensenii growth, 10 ml of MRS media is inoculated with a stab from the glycerol bacterial stock. The culture is placed in a Gas Pak CO2 bag and incubated for 24 h at 37° C. The next day the lactobacillus cultures are diluted to an OD of 0.06 at a wavelength of 670 nm. Compounds are diluted and placed into a 96 well flat bottomed plate and the Lactobacillus sp. added. Commercially available Penicillin/Streptomycin solution at a high test concentration of 1.25 U/ml and 1.25 µg/ml, respectively, are used as the positive control. The plates are again incubated for 24 h at 37° C. in a Gas Pak CO2 bag and bacterial growth determined by measurement of optical density at 490 nm in a molecular devices plate reader. All determinations are performed with 6½ log dilutions from a high test concentration in triplicate.

Lactobacillus jensenii = test: Lactobacillus growth sensitivity assay; format: cell-based; conditions: 24 h growth, OD 490 nm
Procedure: as §1

BHAlyslys2lys4lys8lys16[NH—CO—CH2)O-3,6-Naphthyl-(SO3Na)2]32 [SPL-7013]
>100 µg/mL: CD4-Independent Transmission Assay TC50 (ME180 cells) | L. crispatus (ID50) (Lactobacillus crispatus) | L jensenii (ID50) (Lactobacillus jensenii)

From patent publication US8158575B2, “Agent for the prevention and treatment of sexually transmitted diseases-I” (priority 2001, dated 2012)
